According to patent US20070276024A1, “Methods for Treating Diseases and Conditions with Inverse Agonists and for Screening for Agents Acting as Inverse Agonists” (Inverseon , Inc., priority 2003, published 2007):
Entries after “also recorded” stand apart in the source; their conditions may differ. Like-named read-outs stand apart in the source and are kept apart here.

Legend:
[1] = cited from earlier work
[2] = healthy volunteers; after 9 d of treatment versus first treatment day; cited from earlier work
[3] = system: antigen-induced bronchoconstriction; conditions: acute administration; cited from earlier work
β-adrenergic receptor = conditions: U.S. Pat. No. 6,284,800; cited from earlier work
[4] = long-term administration; cited from earlier work
[5] = cited from earlier work; remark: listed apart in the source
[6] = in humans, in the presence of nadolol; cited from earlier work
asthmatic mice = assay: Airway resistance (Raw) response to methacholine in murine model of asthma; assay type: in vivo, Balb/cJ mice; conditions: for airway responsiveness to methacholine provocation (airway resistance, Raw) / airway hyperresponsiveness: asthmatic mice; for airway hyperresponsiveness: methacholine challenge, chronic treatment 7 days, 20 mg/kg (metoprolol 3× daily s.c.; timolol in chow)
Procedure: Balb/cJ mice aged 6 weeks (Jackson Animal Laboratory, Bar Harbor, Maine) were housed under specific pathogen-free conditions and fed a chicken ovalbumin-free diet. The Animal Research Ethics Boards of both the University of Houston and the Baylor College of Medicine approved all experiments reported here. […] Mice were sensitized with subcutaneous injection of 25 μg of ovalbumin adsorbed to aluminum hydroxide on protocol days 2, 9, and 16. Subsequently, mice were given 50 μL of saline solution containing 25 μg of ovalbumin intranasally, on a daily basis, from protocol days 23 through 27. A group of ovalbumin-sensitized saline-challenged mice serves as controls for systemic sensitization and respiratory challenges with ovalbumin. Prior to intranasal administrations, mice were sedated with halothane vapor.
To examine the effects of duration of β-adrenergic ligand therapy on the phenotype of the murine model of asthma, the experimental drugs were administered either acutely or chronically to different groups of asthmatic mice.
Asthmatic mice on acute therapy were given a single intravenous bolus infusion of either β-adrenergic drug or normal saline on protocol day 28, 15 minutes before airway responsiveness to methacholine was determined. […] […] […] These concentrations were chosen based on those producing therapeutic effects in mice in previously published studies. The non-asthmatic mice were fed normal chow.
On protocol day 28, mice were anesthetized, tracheotomized, and connected to a computer-controlled small animal ventilator (Flexivent, Scientific Respiratory Equipment, Inc., Montreal, Canada). Airway resistance (Raw) was measured using the forced oscillation technique. The cellular composition of bronchoalveolar lavage fluid (BALF) was also determined.
To induce airway constriction, a solution containing 150 μg/mL of acetyl-α-methylcholine chloride (methacholine) (Sigma Chemical, St. Louis, Mo.) was infused intravenously at constant rates using a syringe infusion pump (Raze Scientific Instruments, Stanford, Conn.). […] Each methacholine dose was administered for 3 to 5 minutes, during which data were sampled at 1-minute intervals and then averaged.
The complex input impedance of the respiratory system was computed and the value of the real part of respiratory system impedance at 19.75 Hz was taken to reflect the magnitude of airway resistance (Raw). To examine the degree of airway responsiveness of each animal, the values for Raw as a function of methacholine doses were plotted. The largest value for Raw achieved in response to methacholine stimulation was referred to as Rawpeak. For mice that achieved a plateau in the methacholine dose-Raw response curve, the ED50 was calculated by linear interpolation using the GraphPad Prism4 (GraphPad Software, Inc.). […] The Bonferroni test was used to examine the statistical differences between experimental groups. The effects of acute drug treatments on baseline respiratory system mechanics were assessed using a two-tailed paired t-test. A value of P<0.05 was considered significant.
For these experiments, salbutamol was used for chronic administration at 0.5 mg/kg/day with a minipump and for acute administration at 0.15 mg/kg by i.v. bolus 15 minutes prior to challenge. Alprenolol was used at a high dose of 7200 ppm in chow or at a low dose of 720 ppm in chow. Carvedilol was used at a high dose of 2400 ppm in chow or at a low dose of 720 ppm in chow.
The airway resistance (Raw) is plotted as cm H2O ml^−1 s.

β2-adrenergic receptor = β2-adrenergic receptor (Mus musculus, UniProt P18762); assay type: in vivo, mice; conditions: for level of the β2-adrenergic receptor: chronic treatment; for Bmax (receptor density) / βmax (receptor density): lung membranes, mean±SEM, n=3-5; for Bmax (receptor density): drug treatment 15 Minutes; for βmax (receptor density): drug treatment 28 Days
β2-adrenergic receptor, sequence (P18762 whole entry): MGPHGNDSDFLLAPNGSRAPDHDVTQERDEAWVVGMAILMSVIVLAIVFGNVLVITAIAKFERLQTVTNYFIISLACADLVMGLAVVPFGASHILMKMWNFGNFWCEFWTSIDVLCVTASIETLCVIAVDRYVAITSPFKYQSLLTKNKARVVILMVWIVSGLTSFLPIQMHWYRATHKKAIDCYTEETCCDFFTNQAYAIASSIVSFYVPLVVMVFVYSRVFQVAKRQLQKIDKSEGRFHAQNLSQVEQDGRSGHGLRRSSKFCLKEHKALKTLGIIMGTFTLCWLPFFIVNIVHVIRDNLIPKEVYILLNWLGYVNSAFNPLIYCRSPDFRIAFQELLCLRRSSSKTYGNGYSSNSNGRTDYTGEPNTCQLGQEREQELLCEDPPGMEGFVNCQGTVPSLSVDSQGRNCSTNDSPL
Procedure: β2-adrenergic receptor numbers were measured in asthmatic mice as follows. […] Mice were sacrificed and lung membranes were isolated as follows. Frozen lung tissue was homogenized in an ice-cold buffer containing 0.32 M sucrose and 25 mM Tris (pH 7.4) using a polytron (Pro 200, Pro Scientific, Inc.). The homogenate was centrifuged at 1000×g for 10 min at 4° C. The resulting supernatant was centrifuged at 40,000×g for 20 min at 4° C. The pellet was suspended in an ice-cold 25 mM Tris-HCl buffer (pH 7.4) and centrifuged at 40,000'g for 20 min at 4° C. The final pellet was suspended in 200 μL of 25 mM Tris-HCl (pH 7.4); membrane protein concentration was determined by BCA protein assay kit. […] The incubation was done at 37° C. for 2 h and terminated by rapid vacuum filtration through glass fiber filters. The filters were washed three times with 250 μL of cold wash buffer (25 mM Tris-HCl, pH 7.4) and the radioactivity determined in a counter. […] Receptor densities are expressed as femtomoles of sites per milligram of protein. Bmax is determined by nonlinear regression of the saturation binding curves.

[7] = system: tracheas from asthmatic mice; conditions: asthmatic mice chronically treated; cited from earlier work
patients with CHF = conditions: cited from earlier work
β2 = conditions: read-out: K1 values for β2 (first value); cited from earlier work
β3 = β3 (Homo sapiens, UniProt P13945); conditions: read-out: K1 values for β3; cited from earlier work
β3, sequence (P13945 whole entry): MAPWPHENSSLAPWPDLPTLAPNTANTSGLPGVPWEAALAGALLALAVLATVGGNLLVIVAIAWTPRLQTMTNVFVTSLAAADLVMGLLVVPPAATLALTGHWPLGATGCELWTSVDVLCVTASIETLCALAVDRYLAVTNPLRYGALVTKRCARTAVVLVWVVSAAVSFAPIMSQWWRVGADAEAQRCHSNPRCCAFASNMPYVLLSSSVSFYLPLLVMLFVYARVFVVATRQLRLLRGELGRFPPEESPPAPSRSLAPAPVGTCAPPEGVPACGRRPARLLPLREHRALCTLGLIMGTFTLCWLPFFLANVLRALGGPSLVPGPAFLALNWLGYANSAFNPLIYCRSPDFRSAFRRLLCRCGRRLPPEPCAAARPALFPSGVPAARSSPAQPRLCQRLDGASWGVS

[8] = in vivo; cited from earlier work
[9] = system: sensitized and allergen-challenged mice; assay: Aminophylline on acute airway effects of nadolol; assay type: in vivo; conditions: 100 mg/kg i.p. during methacholine infusion; untreated and nadolol-treated mice
Procedure: Mice were sensitized to the allergen ovalbumin as described in Example 1.
At time point 1 (time=−10 min) baseline airway resistance of the mice was determined. At time point 2 (time=−5 min) methacholine was infused into mice to reach their EC70.

[10] = acute: single intravenous bolus 15 minutes before methacholine
[11] = chronic administration, 28 days (in chow; salbutamol by osmotic minipump)

For `CCCC1O[C@@H]2C[C@H]3[C@@H]4CCC5=CC(=O)C=C[C@]5(C)[C@H]4[C@@H](O)C[C@]3(C)[C@]2(C(=O)CO)O1` (stereo partly shown) [budesonide], the “plasma clearance of the 2 enantiomers per kilogram of bodyweight, higher in children than adults” value ([1]; 6 children with asthma versus 11 healthy adults) is given as “about 50%”, the “plasma clearance relative to the average clearance of prednisolone” value ([1]; in vivo) is given as “about 10 fold” and the “systemic availability of the swallowed fraction” value ([1]; in vivo) is given as 10.7±4.3%.

For `O=S(=O)(Nc1ccc(CCNC[C@H](O)c2cccnc2)cc1)c1ccc(-c2nc(-c3ccc(C(F)(F)F)cc3)cs2)cc1` [L-796568], the “acute increases in plasma fatty acid concentrations” value [2] is given as “completely absent after 9 d of treatment”.

In the case of `CC(C)NC[C@@H](O)COc1cccc2ccccc12` [D-propranolol], the “antigen-induced bronchoconstriction and airway hyperresponsiveness” value [3] is listed as “beneficial in inhibiting antigen-induced bronchoconstriction and reducing airway hyperresponsiveness” and the “activity with respect to β-adrenergic receptors” value (β-adrenergic receptor) is listed as “inactive”.

In the case of `OCc1cc(C(O)CNCCCCCCOCCCCc2ccccc2)ccc1O` (stereo not shown) [salmeterol], the “trial outcome (death rates)” value [4] is listed as “stopped due to increased death rates” and the “time in which the majority of a dose is eliminated, predominantly in the feces” value ([5]; in vivo) is listed as no more than 72 h.

In the case of `CN[C@@H](C)[C@H](O)c1ccccc1` [ephedrine], the “level of thermogenesis relative to the ephedrine-untreated level” value [6] is given as 40%.

For `C=CCc1ccccc1OCC(O)CNC(C)C` (stereo not shown) [Alprenolol, alprenolol], the “Decreased Raw” value (asthmatic mice; 15 minutes of administration) was “yes”, the “Decreased Raw” value (asthmatic mice; 2 days of administration) was “no” and the “Decreased Raw” value (asthmatic mice; 28 days of administration) was “no”. The “airway responsiveness to methacholine provocation (airway resistance, Raw)” value (from here on “airway responsiveness”) (asthmatic mice; [10]) was “airway responsiveness was diminished”, the “airway responsiveness” value (asthmatic mice; [11]) was “does not reduce airway hyperresponsiveness; also recorded: provides no benefit upon chronic administration” and the “Increased β2AR density” value (β2-adrenergic receptor; 15 minutes of administration) was “yes”. The “Increased β2AR density” value (β2-adrenergic receptor; 2 days of administration) was “no”, the “Increased β2AR density” value (β2-adrenergic receptor; 28 days of administration) was “no” and the “level of the β2-adrenergic receptor” value (β2-adrenergic receptor) was “slight decrease”. For the same molecule, the “Bmax (receptor density)” value (β2-adrenergic receptor) was 299.5 ± 12.19 femtomoles of sites per milligram of protein, the “βmax (receptor density)” value (β2-adrenergic receptor) was 179.2 ± 53.05 femtomoles of sites per milligram of protein and the “rank of effectiveness on contraction of excised tracheas in response to methacholine” value [7] was “most effective”.

In the case of `CC(C)(Cc1c[nH]c2ccccc12)NCC(O)COc1ccccc1C#N` (stereo not shown) [Bucindolol, bucindolol], the “clinical outcome (mortality, benefit over placebo)” value (patients with CHF) is listed as “failed to demonstrate any benefit over placebo”.

In the case of `Cc1ccc(Cl)c(OCC(O)CNC(C)(C)C)c1` (stereo not shown) [bupranolol], the Ki (β2) is listed as 1.7 nM, the Ki (β3) is listed as 50 nM and the half-life [8] is listed as 1.5 h.

In the case of `CC(C)NC[C@H](O)COc1cccc2ccccc12` [L-form of propranolol, propranolol], the specific lung resistance [3] is given as “increased specific lung resistance”.

In the case of `C[C@@H]1C[C@H]2[C@@H]3C[C@H](F)C4=CC(=O)C=C[C@]4(C)[C@@]3(F)[C@@H](O)C[C@]2(C)[C@@]1(O)C(=O)SCF` [fluticasone], the “first-pass hepatic metabolism of the systemically absorbed drug” value ([1]; in vivo) is listed as “almost complete”.

For `CC(C)(C)NCC(O)c1cc(O)cc(O)c1` (stereo not shown) [terbutaline], the “increase of bioavailability by the oral component” value ([5]; from an MDI) is given as 6.7% and the “absorption through the lung” value ([5]; healthy smokers versus healthy nonsmokers) is given as “more rapidly”.

With `CC(C)(C)NC[C@H](O)COc1nsnc1N1CCOCC1` [timolol] the airway hyperresponsiveness (asthmatic mice) was “effective in reducing airway hyperresponsiveness”.

In the case of `CC(C)(C)NCC(O)c1ccc(O)c(CO)c1` (stereo not shown) [Salbutamol, salbutamol], the “Decreased Raw” value (asthmatic mice; 15 minutes of administration) is reported as “yes”, the “Decreased Raw” value (asthmatic mice; 2 days of administration) is reported as “no” and the “Decreased Raw” value (asthmatic mice; 28 days of administration) is reported as “no”. The “airway responsiveness” value (asthmatic mice; [10]) was “reduced the level of airway responsiveness to methacholine provocation”, the “airway responsiveness” value (asthmatic mice; [11]) was “no protection was observed” and the “Increased β2AR density” value (β2-adrenergic receptor; 15 minutes of administration) was “yes”. For the same molecule, the “Increased β2AR density” value (β2-adrenergic receptor; 2 days of administration) was “no”, the “Increased β2AR density” value (β2-adrenergic receptor; 28 days of administration) was “no” and the “level of the β2-adrenergic receptor” value (β2-adrenergic receptor) was “slight decrease”. The “Bmax (receptor density)” value (β2-adrenergic receptor) was 256.5 ± 29.24 femtomoles of sites per milligram of protein, the “βmax (receptor density)” value (β2-adrenergic receptor) was 97.0 ± 23.02 femtomoles of sites per milligram of protein and the “bioavailability of inhaled drug” value ([5]; 10 patients with cystic fibrosis versus healthy adults) was “greater”.

In the case of `Cn1c(=O)c2[nH]cnc2n(C)c1=O` [aminophylline], the “airway resistance after administration” value [9] is reported as “significant and sustained drop in airway resistance”.

In the case of `Cc1ccc(OCC(O)C(C)NC(C)C)c2c1CCC2` (stereo not shown) [ICI-118,551], the “rank of effectiveness on contraction of excised tracheas in response to methacholine” value [7] is listed as “then ICI-118,551”.

For `COCCc1ccc(OCC(O)CNC(C)C)cc1` (stereo not shown) [metoprolol], the airway hyperresponsiveness (asthmatic mice) is listed as “effective in reducing airway hyperresponsiveness” and the “clinical outcome (mortality, benefit over placebo)” value (patients with CHF) is listed as “significant mortality reduction”.
